Patent US5696155A, “Dibenz[b,e]oxepin derivatives and pharmaceutical agents which contain them” (Boehringer Mannheim BmbH, priority 1993, dated 1997)

Target: T1, human recombinant type II PLA2 (=synovial PLA2) (Homo sapiens, UniProt P14555)
T1 sequence (P14555 21-144): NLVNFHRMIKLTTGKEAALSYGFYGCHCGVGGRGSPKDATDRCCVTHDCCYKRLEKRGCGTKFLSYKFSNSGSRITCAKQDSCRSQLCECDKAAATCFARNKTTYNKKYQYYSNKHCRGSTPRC
Test: Inhibition of PLA2 activity (sPLA2 enzyme activity, in vitro)
Assay type: biochemical
Conditions: means of 3 experiments (duplicate determinations); for inhibition at 0.1 µg/mL: concentration 0.1 μg/ml; for inhibition at 1 µg/mL: concentration 1 μg/ml; for inhibition at 10 µg/mL: concentration 10 μg/ml
Text: Inhibition of PLA2 activity
The human recombinant type II PLA2 (=synovial PLA2) as a typical representative of a PLA2 was used for the test.
This documents the superiority of the new sPLA2 inhibitors compared to a cyclooxygenase inhibitor.

Row | inhibition at 0.1 µg/mL [%] | inhibition at 1 µg/mL [%] | inhibition at 10 µg/mL [%] | SMILES
1 | 28 | 52 | 61 | CCOC(=O)c1cc(=O)c2c3c(ccc2o1)C(=O)c1ccc(O)cc1CO3 [Ex.2a), 7,12-dihydro-10-hydroxy-1H-4,13-dioxabenzo[4,5]cyclohepta[1,2-a]-naphthalene-1,7-dione-3-carboxylic acid-ethyl ester]
2 | 12 | 73 | 78 | CCOC(=O)c1cc(=O)c2cc3c(cc2o1)OCc1cc(O)ccc1C3=O [Ex.2c), 7,13-dihydro-2-hydroxy-5H-10,12-dioxabenzo[4,5]cyclohepta[1,2-b]-naphthalen-5,7-dione-9-carboxylic acid ethyl ester]
3 | 16 | 17 | 49 | CCCCCCCCOc1ccc2c(c1)COc1c(cc3c(=O)cc(C(=O)OCC)oc3c1CCC)C2=O [Ex.4a), 7,13-dihydro-2-octyloxy-11-propyl-5H-10,12-dioxabenzo-[4,5]cyclo-hepta[1,2-b]naphthalen-5,7-dione-9-carboxylic acid ethyl ester]

Row | SMILES | inhibition at 0.1 µg/mL [%] | inhibition at 1 µg/mL [%] | inhibition at 10 µg/mL [%]
4 | COc1ccc2c(c1)c(CC(=O)O)c(C)n2C(=O)c1ccc(Cl)cc1 [Indomethacin, reference compound] |  | 0 | 
